From paper PMC10487436, “Towards Anticancer and Antibacterial Agents: Design and Synthesis of 1,2,3-Triazol-quinobenzothiazine Derivatives” (International Journal of Molecular Sciences, 2023)

How the values were obtained:
[1] = system: SNB-19 (human glioblastoma); assay: WST-1 proliferation assay, SNB-19; type: cell-based; settings: Homo sapiens, SNB-19, 72 h exposure
Experimental: (§1) Compounds were evaluated for their antiproliferative activity using three cultured cell lines: A549 (human lung carcinoma, ATCC, Manassas, VA, USA), SNB-19 (human glioblastoma, DSMZ, German Collection of Microorganisms and Cell Cultures), T-47D (human breast cancer, ATCC, Manassas, VA, USA), and NHDF (normal human dermal fibroblasts, ATCC, Manassas, VA, USA). The cultured cells were kept at 37 °C and 5% CO2. The cells were seeded (1 × 10^4 cells/well/100 μL DMEM supplemented with 10% FCS, streptomycin, and penicillin) using 96-well plates (corning). Cells were counted in a hemocytometer (Burker chamber) using a phase contrast Olympus IX50 microscope equipped with a Sony SSC-DC58 AP camera and an Olympus DP10 digital camera.
(§2) The antiproliferative effect of the compounds exerted on cancer and normal cells was determined using the Cell Proliferation Reagent WST-1 assay (Roche Molecular Biochemicals, Mannheim, Germany). This assay is based on a colorimetric method using the enzymatic ability of viable cells to cause the bright, red-colored stable tetrazolium monosodium salt [2-(4-iodophenyl)-3-(4-nitrophenyl)-5-(2,4-disulfophenyl)–2H-tetra-zolium] to transform into the dark, red-colored soluble formazan. […] An increase in the amount of formazan dye formed correlated with the number of metabolically active cells in the culture. The formazan dye produced by metabolically active cells was quantified by absorbance readings at appropriate wavelengths. The examined cells were exposed to the tested compounds (1 mM DMSO stock) for 72 h at various concentrations (0.1–100 μM). The control was performed in order to eliminate the DMSO effect at the concentration used. Cell cultures were incubated with WST-1 (10 μL) for 1 h. The absorbance of the samples was measured against a background control at 450 nm using a microplate reader with a reference wavelength at 600 nm. The obtained results are expressed as the means of at least two independent experiments performed in triplicate. The antiproliferative activity of the tested compounds was compared to that of cisplatinum. The values of IC50 (a concentration of a compound that is required for 50% inhibition) were calculated from the dose-response relationship with respect to control. The results were reported as the mean (±std) of three separate experiments.

[2] = system: A549 (human lung carcinoma); assay: WST-1 proliferation assay, A549; type: cell-based; settings: Homo sapiens, A549, 72 h exposure
Experimental: as §1, §2

[3] = system: T-47D (human breast cancer); assay: WST-1 proliferation assay, T47D; type: cell-based; settings: Homo sapiens, T47D, 72 h exposure
Experimental: as §1, §2

[4] = system: NHDF (normal human dermal fibroblasts); assay: WST-1 proliferation assay, NHDF; type: cell-based; settings: Homo sapiens, NHDF, normal cells, 72 h exposure
Experimental: as §1, §2

[5] = system: Staphylococcus aureus ATCC 29213; assay: MIC, microtitration broth method, SA; type: cell-based; settings: ATCC29213, 24 h at 37 °C
Experimental: (§3) In vitro antibacterial activity of the synthesized compounds was evaluated against representatives of multidrug-resistant bacteria, three clinical isolates of methicillin-resistant S. aureus: clinical isolates of animal origin, MRSA 63718 (Department of Infectious Diseases and Microbiology, Faculty of Veterinary Medicine, University of Veterinary Sciences Brno, Czech Republic), carrying the mecA gene; and MRSA SA 630 and MRSA SA 3202 [52] (National Institute of Public Health, Prague, Czech Republic), both of human origin. […] Vancomycin- and methicillin-susceptible S. aureus ATCC 29213 and vancomycin-susceptible Enterococcus faecalis ATCC 29212, obtained from the American Type Culture Collection, were used as the reference and quality control strains. Three vanA gene-carrying vancomycin-resistant isolates of E. faecalis (VRE 342B, VRE 368, VRE 725B) were provided by Oravcova et al..
(§4) The minimum inhibitory concentrations (MICs) were evaluated by the microtitration broth method according to the CLSI, with some modifications. The compounds were dissolved in DMSO (Sigma, St. Louis, MO, USA) to obtain a concentration of […] and diluted in a microtitration plate in an appropriate medium, i.e., Cation Adjusted Mueller–Hinton Broth (CaMH, Oxoid, Basingstoke, UK) for staphylococci, and Brain Heart Infusion Broth (BHI, Oxoid) for enterococci, to reach the final concentration of 256–0.125 µg/mL. Microtiter plates were inoculated with test micro-organisms so that the final concentration of bacterial cells was 10^5. […] A drug-free control and a sterility control were included. The plates were incubated for 24 h at 37 °C for staphylococci and enterococci. […] The experiments were repeated three times.

[6] = system: methicillin-resistant S. aureus SA 3202; assay: MIC, microtitration broth method, MRSA1; type: cell-based; settings: Staphylococcus aureus; 24 h at 37 °C
Experimental: as §3, §4

[7] = system: methicillin-resistant S. aureus SA 630; assay: MIC, microtitration broth method, MRSA2; type: cell-based; settings: Staphylococcus aureus; 24 h at 37 °C
Experimental: as §3, §4

[8] = system: methicillin-resistant S. aureus 63718; assay: MIC, microtitration broth method, MRSA3; type: cell-based; settings: Staphylococcus aureus; 24 h at 37 °C
Experimental: as §3, §4

[9] = system: Enterococcus faecalis ATCC 29213; assay: MIC, microtitration broth method, EF; type: cell-based; settings: ATCC29213, 24 h at 37 °C
[10] = system: vancomycin-resistant E. faecalis VRE 342B; assay: MIC, microtitration broth method, VRE1; type: cell-based; settings: Enterococcus faecalis, 24 h at 37 °C
Experimental: as §3, §4

[11] = system: vancomycin-resistant E. faecalis VRE 368; assay: MIC, microtitration broth method, VRE2; type: cell-based; settings: Enterococcus faecalis, 24 h at 37 °C
Experimental: as §3, §4

[12] = system: vancomycin-resistant E. faecalis VRE 725B; assay: MIC, microtitration broth method, VRE3; type: cell-based; settings: Enterococcus faecalis, 24 h at 37 °C
Experimental: as §3, §4

[13] = system: Mycobacterium smegmatis ATCC 700084; assay: MIC, broth dilution micro-method, MS; type: cell-based; settings: Mycolicibacterium smegmatis, ATCC700084, 72 h; 3 days at 37 °C
[14] = system: Mycobacterium marinum CAMP 5644; assay: MIC, broth dilution micro-method, MM; type: cell-based; settings: CAMP5644, 504 h, 21 days at 28 °C
[15] = system: Staphylococcus aureus ATCC 29213; assay: MBC, agar aliquot subculture method, SA; type: cell-based; settings: ATCC29213
Experimental: (§5) For the above-mentioned strains/isolates, the agar aliquot subculture method was used as a test for bactericidal agents. After the MIC value determination, the inoculum was transferred to CaMH (Oxoid) for staphylococci, BHI (Oxoid) for enterococci, and Middlebrook 7H9 (Difco) for mycobacteria medium using a multipoint inoculator. As indicated above, the plates were incubated on a thermostat at 37 °C for the appropriate time for each micro-organism. The lowest concentration of test compound at which ≤5 colonies were obtained was then evaluated as MBC, corresponding to a 99.9% decrease in CFU relative to the original inoculum.

[16] = system: methicillin-resistant S. aureus SA 3202; assay: MBC, agar aliquot subculture method, MRSA1; type: cell-based; settings: Staphylococcus aureus
Experimental: as §5

[17] = system: methicillin-resistant S. aureus SA 630; assay: MBC, agar aliquot subculture method, MRSA2; type: cell-based; settings: Staphylococcus aureus
Experimental: as §5

[18] = system: methicillin-resistant S. aureus 63718; assay: MBC, agar aliquot subculture method, MRSA3; type: cell-based; settings: Staphylococcus aureus
Experimental: as §5

[19] = system: Mycobacterium smegmatis ATCC 700084; assay: MBC, agar aliquot subculture method, MS; type: cell-based; settings: Mycolicibacterium smegmatis, ATCC700084
Experimental: as §5

[20] = system: Mycobacterium marinum CAMP 5644; assay: MBC, agar aliquot subculture method, MM; type: cell-based; settings: CAMP5644
Experimental: as §5

[21] = system: Mycobacterium smegmatis ATCC 700084; settings: 3 days; for Conc.: lowest multiple of MBC with at least 70% inhibition of respiratory activity / Conc.: lowest multiple of MIC with at least 70% inhibition of respiratory activity: MTT; for M. smegmatis Respiration Inhibition: at the concentration (lowest multiple of MIC with at least 70% inhibition)

| Compound | IC50 [1] [µM] | IC50 [2] [µM] | IC50 [3] [µM] | MIC [5] [µM] | MIC [6] [µM] | MIC [7] [µM] | MIC [8] [µM] | MIC [9] [µM] | MIC [10] [µM] | MIC [11] [µM] | MIC [12] [µM] | MIC [13] [µM] | MIC [14] [µM] | IC50 [4] [µM] | MBC [15] [µM] | MBC [16] [µM] | MBC [17] [µM] | MBC [18] [µM] | MBC [19] [µM] | MBC [20] [µM] | other results |
| --- | --- | --- | --- | --- | --- | --- | --- | --- | --- | --- | --- | --- | --- | --- | --- | --- | --- | --- | --- | --- | --- |
| C[n+]1cc2c(c3ccccc31)Nc1c(OCc3cn(CSc4ccccc4)nn3)cccc1S2 [2l, 5-Methyl-11-(1-(phenylthio)methyl-1H-1,2,3-triazol-4-yl)methoxy-12H-quino [3,4-b][1,4] benzothiazinium chloride] | 9.6 ± 0.8 | 14.1 ± 0.6 | 4.3 ± 0.2 | 65.5 | 65.5 | 65.5 | 32.7 | 524 | 524 | 524 | 524 | 16.3 | 16.3 | > 100 | 65.5 | 131 | 65.5 | 32.7 | 16.3 | 16.3 | Conc.: lowest multiple of MBC with at least 70% inhibition of respiratory activity [21]: 2× MIC (2× MBC); Conc.: lowest multiple of MIC with at least 70% inhibition of respiratory activity [21]: 2× MIC (2× MBC); M. smegmatis Respiration Inhibition [21]: 87.3% |
| C[n+]1cc2c(c3ccccc31)Nc1cc(OCc3cn(Cc4ccc([N+](=O)[O-])cc4)nn3)ccc1S2 [2h, 5-Methyl-10-[1-(4-nitrobenzyl)-1H-1,2,3-triazol-4-yl]methoxy-12H-quino [3,4-b][1,4]benzothiazinium chloride] | 9.3 ± 0.5 | 14.6 ± 0.6 | 6.3 ± 0.3 | 131 | 262 | 262 | 131 | > 524 | > 524 | > 524 | > 524 | 16.3 | 32.7 | > 100 | 131 | 262 | 262 | 131 | 16.3 | 32.7 | Conc.: lowest multiple of MBC with at least 70% inhibition of respiratory activity [21]: 1× MIC (1× MBC); Conc.: lowest multiple of MIC with at least 70% inhibition of respiratory activity [21]: 1× MIC (1× MBC); viability of M. smegmatis at MIC value ([21]; Mycobacterium smegmatis): less than 70%; M. smegmatis Respiration Inhibition [21]: 81.4% |
| C[n+]1cc2c(c3ccccc31)Nc1cc(OCc3cn(CSc4ccccc4)nn3)ccc1S2 [2k, 5-Methyl-10-(1-(phenylthio)methyl-1H-1,2,3-triazol-4-yl)methoxy-12H-quino [3,4-b][1,4] benzothiazinium chloride] | 6.1 ± 0.3 | 16.4 ± 0.9 | 10.6 ± 0.9 | 65.5 | 65.5 | 65.5 | 16.3 | 524 | > 524 | 524 | 524 | 32.7 | 32.7 | > 100 | 65.5 | 65.5 | 65.5 | 16.3 | 32.7 | 32.7 |  |
| C[n+]1cc2c(c3ccccc31)Nc1ccc(OCc3cn(Cc4ccc([N+](=O)[O-])cc4)nn3)cc1S2 [2g, 5-Methyl-9-[1-(4-nitrobenzyl)-1H-1,2,3-triazol-4-yl]methoxy-12H-quino [3,4-b][1,4]benzothiazinium chloride] | 8.4 ± 0.7 | 4.5 ± 0.3 | 11.8 ± 0.5 | 262 | 262 | 262 | 65.5 | 262 | 524 | 262 | 131 | 32.7 | 65.5 | 27.6 ± 0.6 | 262 | 262 |  | 65.5 | 65.5 | 131 |  |

The next compounds have a lower IC50 [1] than those just listed; values first:

| IC50 [1] [µM] | IC50 [2] [µM] | IC50 [3] [µM] | MIC [5] [µM] | MIC [6] [µM] | MIC [7] [µM] | MIC [8] [µM] | MIC [9] [µM] | MIC [10] [µM] | MIC [11] [µM] | MIC [12] [µM] | MIC [13] [µM] | MIC [14] [µM] | Compound | IC50 [4] [µM] | MBC [15] [µM] | MBC [16] [µM] | MBC [17] [µM] | MBC [18] [µM] | MBC [19] [µM] | MBC [20] [µM] | other results |
| --- | --- | --- | --- | --- | --- | --- | --- | --- | --- | --- | --- | --- | --- | --- | --- | --- | --- | --- | --- | --- | --- |
| 3.4 ± 0.3 | 8.4 ± 0.6 | 12.5 ± 0.8 | 32.8 | 65.5 | 65.5 | 16.3 | 524 | 524 | 524 | 524 | 32.7 | 32.7 | C[n+]1cc2c(c3ccccc31)Nc1cc(OCc3cn(Cc4ccccc4)nn3)ccc1S2 [2e, 5-Methyl-10-(1-benzyl-1H-1,2,3-triazol-4-yl)methoxy-12H-quino [3,4-b][1,4]benzothiazinium chloride] | 56.6 ± 4.2 | 65.5 | 65.5 | 65.5 | 16.3 | 32.7 | 32.7 |  |
| 2.5 ± 0.1 | 6.3 ± 0.4 | 8.6 ± 0.7 | 131 | 131 | 131 | 65.5 | > 524 | > 524 | > 524 | > 524 | 32.7 | 32.7 | C[n+]1cc2c(c3ccccc31)Nc1ccc(OCc3cn(Cc4ccccc4)nn3)cc1S2 [2d, 5-Methyl-9-(1-benzyl-1H-1,2,3-triazol-4-yl)methoxy-12H-quino [3,4-b][1,4]benzothiazinium chloride] | > 100 | 65.5 | 131 | 131 | 65.5 | 32.7 | 32.7 |  |
